Source: PubChem BioAssay AID1421 (Emory University Molecular Libraries Screening Center, 2008)
Where “and” joins values, the source holds several entries; their conditions need not be identical. Equal values may be shown once. Calls of active or inactive are those of the source. No rule for the calls is given here.

molecular target: Prostaglandin E2 receptor EP2 subtype (Homo sapiens) (UniProt P43116); assay: EP2 receptor modulators, dose response, cell-based, human EP2, PGE2 EC50 shift (AID 1421); details: EP2-expressing cells, PGE2 EC50 shift by compound
Sequence (P43116 whole entry, looked up): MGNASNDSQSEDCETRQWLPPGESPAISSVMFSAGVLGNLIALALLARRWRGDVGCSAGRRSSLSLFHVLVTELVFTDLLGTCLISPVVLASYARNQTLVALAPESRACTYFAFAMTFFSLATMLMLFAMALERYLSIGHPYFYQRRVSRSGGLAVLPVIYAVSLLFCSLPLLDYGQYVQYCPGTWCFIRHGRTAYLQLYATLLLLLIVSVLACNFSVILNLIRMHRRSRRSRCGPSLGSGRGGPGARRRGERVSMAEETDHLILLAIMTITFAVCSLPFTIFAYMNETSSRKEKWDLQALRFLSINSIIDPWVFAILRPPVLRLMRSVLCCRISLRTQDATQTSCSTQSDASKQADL

Row | outcome | Structure (SMILES)
1 | active | Cc1ccccc1C(=O)Nc1ccccc1N1CCCCC1
2 | active | CCOc1ccccc1NC1c2ccccc2C(=O)N1c1ccc(C)cn1 (configuration not stated)
3 | active | CSc1ccccc1NC(=O)CN(C)Cc1cccc(Cl)c1
4 | active | OC(COc1ccccc1)Cn1c2ccccc2c2ccccc21 (configuration not stated)
5 | active | Cn1c(=O)c(NC2CCCCC2)c2c3c(cccc31)C(=O)c1ccccc1-2
6 | active | CC(C)C1COC(c2cccn2Cc2ccccc2Cl)=N1 (configuration not stated)
7 | active | CCOC(=O)c1c(NC(=O)c2ccco2)sc2c1CCCCC2
8 | active | CCCc1cc(-c2n[nH]c(=S)n2C(C)c2ccccc2)cs1 (configuration not stated)
9 | active | O=C(Nc1ccccc1Cl)N1CCSc2ccccc21
10 | active | Cc1ccc(NC2=C(C(=O)c3ccccc3)N(C)S(=O)(=O)c3ccccc32)cc1
11 | active | CCC(C)N(C)C(=O)c1cc2ccccc2c(-c2ccccc2Cl)n1 (configuration not stated)
12 | active | Cc1ccc(C(=O)c2c(NC(=O)c3ccncc3)sc3c2CCCC3)cc1
13 | active | Cc1ccc(Cn2c(=O)n(Cc3ccco3)c(=O)c3ccccc32)cc1
14 | active | CCOC(=O)c1c(C)[nH]c(C=O)c1Cc1cccc(Cl)c1

Row | Structure (SMILES) | outcome
15 | NC(=NCCC[C@H](N)C(=O)O)N[N+](=O)[O-] | active

same assay, conditions: EP2-expressing cells, PGE2 EC50 shift by compound; measured here: PGE2 EC50 at 6.7 uM compound

Row | PGE2 EC50 with compound | Structure (SMILES)
16 | 1.62 nM | S=C(Nc1ccccc1Cl)N(Cc1ccccc1)Cc1ccccn1
17 | 0.75 nM | Cc1noc2ncnc(Sc3c(Cl)cccc3Cl)c12
18 | 1.41 nM | Cc1ccccc1C(=O)Nc1ccccc1N1CCCCC1
19 | 0.57 nM | Cc1nc2c3cc(F)ccc3n(Cc3ccccc3)c2s1
20 | 1.3 nM | CCOC(=O)C1=C(C)OC(N)=C(C#N)C1c1cc(C)sc1C (configuration not stated)
21 | 0.85 nM | CC(=O)OC[C@@]1(O)C[C@@]23CCC4c5ccoc5CC[C@]4(C)C2CC[C@@H]1C3 (some centres not stated)
22 | 0.89 nM | CCOc1ccccc1NC1c2ccccc2C(=O)N1c1ccc(C)cn1 (configuration not stated)
23 | 1.47 nM | O=C1CCC(C(=O)OCC(=O)N2N=C3/C(=C/c4ccccc4)CCCC3C2c2ccccc2)N1 (configuration not stated)
24 | 1.36 nM | COCC(=O)N(C)c1nnc(-c2cnc(C)cn2)s1
25 | 0.31 nM | Cc1cccc(N=N/C(=C\O)C(=O)c2ccc(Br)cc2)c1
26 | 2.47 nM | CN(CC(=O)Nc1ccccc1Oc1ccccc1)Cc1ccccc1F
27 | 1.5 nM | COc1cc(C)c(NC(c2ccccc2)c2ccccc2)cc1OC
28 | 1.03 nM | Cc1cc(C)c2cc(C)c(SCC(=O)NCc3ccco3)nc2c1
29 | 2.63 nM | CCCCCOC(=O)c1[nH]c2c(c1C)C(=O)C(C(=O)OC)C(C)C2 (configuration not stated)
30 | 0.89 nM | O=C(O)c1csc(N/N=C/c2ccc(Br)cc2)n1
31 | 2.64 nM | CC1CC(C)CN(CC(=O)NC(c2ccccc2)c2ccccc2)C1 (configuration not stated)
32 | 1.14 nM | C=CCn1c(CCc2cc(C(C)(C)C)c(O)c(C(C)(C)C)c2)n[nH]c1=S
33 | 0.92 nM | N#CN=C1SCCS1
34 | 2.47 nM | Cc1ccccc1S(=O)(=O)c1c(C)cc(C)n(CC(C)C)c1=O
35 | 0.76 nM | COc1ccc2cc(CN(Cc3ccco3)C(c3nnnn3C3CCCCC3)C(C)C)c(=O)[nH]c2c1 (configuration not stated)
36 | 1.3 nM | CC1=CCc2c(cc3oc(C)cc(=O)c3c2O)OC1
37 | 0.64 nM | O=C(Nc1cccc(Cl)c1N1CCCCC1)c1ccc2c(c1)OCCO2
38 | 0.83 nM | Cc1onc(-c2ccccc2Cl)c1-c1nc(-c2ccncc2)no1
39 | 3.13 nM | CC(C)c1ccc(OCC(=O)NC(=S)Nc2ccc3c4c(cccc24)CC3)cc1
40 | 0.51 nM | COc1ccc(C2=NN(C(=O)c3cccs3)C(c3ccccc3O)C2)cc1 (configuration not stated)
41 | 1.03 nM | COc1ccc(-c2cc(C(F)(F)F)n3nc(C(=O)N(C)Cc4ccccc4)cc3n2)cc1OC

Row | PGE2 EC50 with compound | Structure (SMILES)
42 | 0.9 nM | COC(=O)c1c(NC(=S)NN2CCOCC2)sc2c1CCCC2
43 | 1.41 nM | O=C(COc1ccccc1)Nc1ccccc1Oc1ccccc1
44 | 1.62 nM | CCOC(=O)c1ccc(CN(Cc2ccc(C)cc2)S(=O)(=O)c2cccc([N+](=O)[O-])c2)cc1
45 | 0.97 nM | CSc1ccccc1NC(=O)CN(C)Cc1cccc(Cl)c1
46 | 1.07 nM | COc1c2c(cc3occ(-c4ccc5c(c4)OCO5)c(=O)c13)OC(C)(C)C=C2
47 | 1 nM | CCCCc1nnc(SCCSc2nnc(CCCC)n2N)n1N
48 | 0.96 nM | CCOC(=O)CCCCCCCCCCCCC1C=CCC1 (configuration not stated)
49 | 0.94 nM | Cc1cccc(Cn2c(N3CCN(c4ccccc4)CC3)nc3c2c(=O)n(C)c(=O)n3C)c1
50 | 1.37 nM | NC(=O)CSc1nnc(-c2cccc(S(=O)(=O)N3CCOCC3)c2)n1C1CCCCCC1
51 | 1.4 nM | OC(COc1ccccc1)Cn1c2ccccc2c2ccccc21 (configuration not stated)
52 | 1.15 nM | COc1ccc(-c2nnc(N3CCC(C)CC3)c3ccccc23)cc1
53 | 1.25 nM | CC(NC(c1ccccc1)c1ccccc1)C(=O)N1CCCc2ccccc21 (configuration not stated)
54 | 1.33 nM | Cc1sc2ncnc(SCc3ccco3)c2c1C
55 | 1.31 nM | Cc1ccc(S(=O)(=O)c2c(C)cc(C)nc2N2CCCCC2)cc1
56 | 1.12 nM | Cc1ccc(Oc2nc(-c3ccccc3)ncc2S(C)(=O)=O)cc1
57 | 1.38 nM | Cn1c(=O)c2c(nc(CN3CCN(c4ccccc4)CC3)n2Cc2c(F)cccc2Cl)n(C)c1=O
58 | 1.03 nM | Cc1cc(-c2ccccc2)nc2cc(C(=O)N(Cc3ccccc3)Cc3ccccc3)nn12
59 | 0.7 nM | COC(=O)c1cc(-c2ccc3c(c2)OCO3)nc2ccccc12
60 | 0.92 nM | CC(C)Oc1ccc(/C=C(/NC(=O)c2ccccc2)C(=O)NCCC(=O)O)cc1
61 | 0.79 nM | CCOC(=O)C1=C(C)N(C)C(C)=C(C(=O)OCC)C1c1ccsc1
62 | 1.4 nM | CCc1ccc(OCc2n[nH]c(=S)n2C(C)CCCC(C)C)cc1 (configuration not stated)
63 | 2.59 nM | Cn1c(=O)c2c(nc(CN3CCN(c4ccccc4)CC3)n2Cc2ccccc2Cl)n(C)c1=O
64 | 0.55 nM | Cn1c(=O)c(NC2CCCCC2)c2c3c(cccc31)C(=O)c1ccccc1-2
65 | 0.95 nM | O=C(Nc1ccccc1N1CCCCC1)c1cccc(F)c1
66 | 1.29 nM | O=C1/C(=C/c2cccnc2)SC(=NCc2ccccc2)N1Cc1ccccc1
67 | 1.17 nM | CCn1c(=NC(=O)c2ccc(S(=O)(=O)N(C)C)cc2)sc2cccc(OC)c21

Row | PGE2 EC50 with compound | Structure (SMILES)
68 | 1.21 nM | Cn1c(/C=C/N(Cc2ccccc2)c2ccccc2)c([N+](=O)[O-])c(=O)n(C)c1=O
69 | 0.95 nM | CC(C)C1COC(c2cccn2Cc2ccccc2Cl)=N1 (configuration not stated)
70 | 1.28 nM | COc1ccc(C2=Nn3c(nnc3-c3ccc(OC)cc3)SC2)cc1
71 | 0.85 nM | c1ccc(C2Nc3ccccc3Oc3ccccc32)cc1 (configuration not stated)
72 | 0.75 nM | Cc1cc(NC(=O)CN2CCCC(C)C2)n(-c2nc3ccccc3s2)n1 (configuration not stated)
73 | 1.08 nM | Cc1cccc(/C=N/Nc2cc(N3CCOCC3)nc(N3CCOCC3)n2)c1
74 | 1.06 nM | O=C(c1cc(-c2ccccn2)nc2ccc(Br)cc12)N1CCc2ccccc2C1
75 | 1.38 nM | S=C1NCCc2ccc(Cl)cc2C1c1ccccc1 (configuration not stated)
76 | 1.27 nM | CC1CCN(C(C)C(=O)Nc2ccccc2-c2ccccc2)CC1 (configuration not stated)
77 | 0.87 nM | CCOC(=O)c1c(NC(=O)c2ccco2)sc2c1CCCCC2
78 | 0.7 nM | COc1ccc(N2CCN(c3nc4c(c(=O)[nH]c(=O)n4C)n3Cc3cccc(C)c3)CC2)cc1
79 | 1.02 nM | Cc1ccc(C)n1-n1c(C)nc2scc(-c3cccs3)c2c1=O
80 | 1.2 nM | CCCc1cc(-c2n[nH]c(=S)n2C(C)c2ccccc2)cs1 (configuration not stated)
81 | 0.89 nM | CCCCC(=O)C1CCN(Cc2ccccc2)CC1
82 | 0.73 nM | Cc1ccc(CSc2nc3ccccc3cc2C=O)cc1
83 | 1.36 nM | COc1cc(/C=C2\SC(=S)N(Nc3ncc(C(F)(F)F)cc3Cl)C2=O)ccc1O
84 | 2.63 nM | COc1ccc(C2=Nn3c(nnc3-c3ccccc3)SC2)cc1OC
85 | 0.67 nM | CCOC(=O)c1c(NC(=O)CSc2ncnc3[nH]ncc23)sc2c1CCC(C)C2 (configuration not stated)
86 | 1.55 nM | O=C(Nc1ccccc1Cl)N1CCSc2ccccc21
87 | 1.16 nM | COc1ccc(S(=O)(=O)N(Cc2ccccc2)Cc2nc(-c3ccccc3)no2)cc1
88 | 1.27 nM | CC1CCN(c2nc3c(c(=O)[nH]c(=O)n3C)n2CC(C)CSc2nnnn2-c2ccccc2)CC1 (configuration not stated)
89 | 1.06 nM | Brc1cccc(-c2nnc(SCc3ccon3)n2-c2ccccc2)c1
90 | 1.28 nM | Cc1ccc(NC2=C(C(=O)c3ccccc3)N(C)S(=O)(=O)c3ccccc32)cc1
91 | 1.58 nM | COc1ccccc1N(C(=O)NCc1ccccc1)C1=NCC(C)S1 (configuration not stated)
92 | 1.26 nM | CC1CCCN(C(=O)CSc2cnc3ccccc3n2)C1 (configuration not stated)
93 | 1.11 nM | O=C(c1ccco1)N(CCC(c1ccccc1)c1ccco1)Cc1ccc(F)cc1 (configuration not stated)

Row | PGE2 EC50 with compound | Structure (SMILES)
94 | 0.93 nM and 1.18 nM | CCC(C)N(C)C(=O)c1cc2ccccc2c(-c2ccccc2Cl)n1 (configuration not stated)
95 | 0.66 nM | COc1ccc(-c2nn3c(-c4ccccc4)nnc3s2)cc1
96 | 1.38 nM | Cc1noc(C)c1CSc1ncnc2sc(C)c(C)c12
97 | 1.16 nM | Cc1cccc(-n2c(CCc3ccccc3)nnc2SCC(=O)c2ccccc2)c1
98 | 0.66 nM | Cc1ccc(C(=O)c2c(NC(=O)c3ccncc3)sc3c2CCCC3)cc1
99 | 3.1 nM and 3.84 nM | CC(Sc1ccc2ccccc2n1)C(=O)O (configuration not stated)
100 | 2.43 nM | CN(c1ccccc1)C1CCCCC1NS(=O)(=O)c1ccc(Cl)cc1 (configuration not stated)
101 | 0.51 nM | CCOC(=O)C1=C(N)N2C(=O)C(C)SC2=C(C(=O)OC)C1c1ccccc1OC (configuration not stated)
102 | 0.9 nM | c1ccc(-c2n[nH]nc2-c2ccccc2)cc1
103 | 2.87 nM and 2.98 nM | O=C(O)CCSc1ccc2ccccc2n1
104 | 0.78 nM | Cc1ccc(Cn2c(=O)n(Cc3ccco3)c(=O)c3ccccc32)cc1
105 | 1.23 nM | O=C(CSc1nc(Cc2ccccc2)nc2ccccc12)c1ccc2c(c1)OCCO2
106 | 1.15 nM | Cc1nn2c(N3CCN(C(=O)c4ccco4)CC3)cc(C(C)(C)C)nc2c1-c1ccccc1
107 | 1.03 nM | O=C(N=C1SCC(=O)N1c1ccccc1Cl)c1ccccc1
108 | 1.18 nM | Cc1nn(Cc2c(Cl)cccc2Cl)c(C)c1C(=O)NCc1ccc(C)n1C
109 | 0.98 nM | CCOC(=O)c1c(C)[nH]c(C=O)c1Cc1cccc(Cl)c1
110 | 2.62 nM | COc1c(O)cc2oc3cc(O)c(CC=C(C)C)c(O)c3c(=O)c2c1CC=C(C)C
111 | 0.88 nM | C/C(CCC(C)C)=N\NC(=S)NCc1ccccc1
112 | 0.61 nM | CN(C)c1nc(N2CCOCC2)nc(N(c2ccccc2)c2ccccc2)n1
113 | 1.62 nM | c1ccc(CCc2cccnc2)nc1
114 | 2.6 nM | Cc1cc(C)n(-c2cc(-c3ccccc3)nc(C)n2)n1
115 | 1.55 nM | CCN(CC)C(=O)Cn1cc(C(=O)C(=O)NCc2ccco2)c2ccccc21
116 | 0.83 nM | CC(=O)c1cc(C#N)c(SCc2ccccc2)nc1C

Row | Structure (SMILES) | PGE2 EC50 with compound
117 | NC(=NCCC[C@H](N)C(=O)O)N[N+](=O)[O-] | 1.93 nM
